Assays:
PANC-1 (pancreatic) = test: MTS anti-proliferative assay in PANC-1 cells; type: cell-based; conditions: Homo sapiens, PANC-1; Table 8, 48 h, mean ± SEM
Experimental: (§1) Cell viability was assessed by MTS proliferation assay kit (Promega) per manufacturer's protocol. Briefly, 2×10^4 cells were plated in a 96-well plate in 100 μL growth medium to make the cell population at ˜80% confluence. After 24 h, 1 μL drug solution was added to each well. DMSO was used as vehicle compound. After 48 h incubation (37° C., 5% CO2), 20 μL of freshly prepared 3-(4,5-dimethylthiazol-2-yl)-5-(3-carboxymethoxyphenyl)-2-(4-sulfophenyl)-2H-tetrazolium (MTS)/phenazine methosulfate (PMS) solution was added to each well, and the plate was returned to the incubator for 1 h. Absorbance at 490 nm was recorded, and the result was analyzed by GraphPad Prism 5. GI50 values represent mean±SEM for at least two separate experiments performed in triplicate.

GLI1-ZFD = target: T1, GLI1-ZFD (Homo sapiens, UniProt P08151); test: Microscale thermophoresis (MST) binding to GLI1-ZFD; conditions: for binding to GLI1 (in words): MST binding assay
T1 construct: GLI1-ZFD Expression and Purification; made in house
T1 sequence (P08151 234-388 limits assumed): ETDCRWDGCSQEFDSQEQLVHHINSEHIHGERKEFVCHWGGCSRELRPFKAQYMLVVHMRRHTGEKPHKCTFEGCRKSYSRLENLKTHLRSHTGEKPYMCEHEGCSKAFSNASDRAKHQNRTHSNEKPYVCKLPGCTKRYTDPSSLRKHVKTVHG
Experimental: The protein expression and purification experiments followed the previous reported procedures [C. A. Maschinot, et al., Synthesis and evaluation of third generation vitamin D3 analogues as inhibitors of hedgehog signaling. Euro. J. Med. Chem. 162 (2019) 495-506].
GLI1 protein labeling was performed through the Monolith Protein Labeling Kit RED-NHS 2nd Generation (Nanotemper #MO-LO11) per the manufacturer's instructions. Briefly, GLI1 (100 μg, 1 mg/mL) underwent buffer exchange to remove incompatible ingredients like Tris or DTT. Proteins in the Labeling Buffer were incubated with freshly prepared dye (˜3-fold excess of dye) for 30 min at RT in the dark. Unreacted ‘free’ dye was removed by a gel-filtration column. Protein concentration and degree-of-labeling were calculated by measuring absorption at 280 nm and 650 nm. For each assay, 200 nM GLI1 in MST Buffer was mixed with compound dilution in DMSO (DMSO<5%, v/v). The mixture was then loaded to a capillary and the thermophoresis was subsequently determined through Monolith NT.115 station. Results were analyzed by MO.Affinity Analysis software and visualized by Graphpad Prism. MST Buffer: 50 mM HEPES, pH 8.3, 100 mM NaCl.

ASZ001 cells = test: MTS anti-proliferative assay in ASZ001 cells; type: cell-based, murine; conditions: Mus musculus, ASZ001, Ave ± SEM
Experimental: as §1

GLI1 mRNA expression [1] = test: RT-qPCR GLI1 mRNA expression in ASZ001 BCC cells; type: cell-based, mouse; conditions: Mus musculus, Ave ± SEM, read-out: RT-qPCR, IC50 ASZ001
Experimental: (§2) ASZ001 and Sufu-KO cells were seeded in 96-well plates (10,000/well, 100 μL) and incubated overnight under growth conditions. On the second day, ‘growth’ media was removed and replaced by ‘assay’ media (100 μL). On the third day, cells were treated with a serial dilution of drugs or DMSO for 48 h. mRNA expression was determined through Taqman Fast Cells-to-CT Kit (#4399003) per the manufacturer's instructions. In brief, cells were washed with chilled PBS, then mixed with lysis solution containing DNase I and incubated at RT for 5 min. Stop solution was then added to quench the lysis reagents. cDNA was then synthesized through a BioRad MyCycler following addition of reverse transcriptase. Finally, the cDNA was amplified through an ABI 7500 system following addition of Taqman Fast Universal PCR Master Mix and Taqman Gene Expression Primer. Relative gene expression levels were computed by the ΔΔCt method. Values represent mRNA expression relative to DMSO control (set at 1.0). Data were analyzed using GraphPad Prism, and IC50 values are the mean±SEM for at least two separate experiments performed in triplicate. Primers used are as follows: mouse ActB (Mm00607939_s1); mouse GLI1 (Mm00494645_ml); mouse Gli2 (Mm01293117_ml); mouse Ptch1 (Mm00436026_ml); mouse Hhip (Mm00469580_ml).

GLI1 mRNA expression [2] = test: RT-qPCR GLI1 mRNA expression in Sufu-KO MEFs; type: cell-based, mouse; conditions: for IC50: Mus musculus, Ave ± SEM, read-out: RT-qPCR, IC50 Sufu-KO
Experimental: as §2

DAOY (MB) = test: MTS anti-proliferative assay in DAOY cells; type: cell-based; conditions: Homo sapiens, Daoy; Table 8, 48 h, mean ± SEM
Experimental: as §1

| Structure (SMILES) | GI50 (PANC-1 (pancreatic)) | GI50 (ASZ001 cells; Table 7, 48 h) | IC50 (GLI1 mRNA expression [1]; ASZ001, Table 7, GLI1 mRNA) | IC50 (GLI1 mRNA expression [2]; Table 7, GLI1 mRNA) | also measured |
| --- | --- | --- | --- | --- | --- |
| Cc1ccc2ccc(C(Nc3ccccn3)c3ccc(-n4cccc4)cc3)c(O)c2n1 (stereo not shown) [Compound 49, 7-((4-(1H-Pyrrol-1-yl)phenyl)(pyridin-2-ylamino)methyl)-2-methylquinolin-8-ol] | > 100 µM | 91.7 ± 21 µM | 14.2 ± 2.4 µM | 1.1 ± 0.4 µM | Kd (GLI1-ZFD; Table 7, Ave ± SEM): 28.5 ± 7.2 µM |
| CCN(CC)c1ccc(C(Nc2ccccn2)c2ccc3ccc(C)nc3c2OC2CCCC2)cc1 (stereo not shown) [Compound 22, N-((4-Diethylaminophenyl)(8-cyclopentyloxy-2-methylquinolin-7-yl)methyl)pyridin-2-amine] | – | – | – | – | binding to GLI1 (in words) (GLI1-ZFD): did not bind to GLI1; GI50 (ASZ001 cells; Table 5, 48 h): > 100 µM; IC50 (GLI1 mRNA expression [1]; ASZ001, Table 5, GLI1 mRNA): 0.54 µM; anti-GLI1 activity in Sufu-KO cells (in words) (GLI1 mRNA expression [2]): inactive; IC50 (GLI1 mRNA expression [2]; Table 5, GLI1 mRNA): > 25 µM |
| Cc1ccc2ccc(C(Nc3ccccn3)c3ccc([N+](=O)[O-])cc3)c(O)c2n1 (stereo not shown) [Compound 40, 7-((4-Nitrophenyl)(pyridin-2-ylamino)methyl)-2-methylquinolin-8-ol] | > 100 µM | 61.8 ± 27.5 µM | 17.3 ± 6.1 µM | 5.6 ± 0.9 µM | GI50 (DAOY (MB)): 75.2 ± 17.4 µM |
| Cc1ccc2ccc(C(Nc3ccccn3)c3ccc(-n4ccnc4)cc3)c(O)c2n1 (stereo not shown) [Compound 50, 7-((4-(1H-Imidazol-1-yl)phenyl)(pyridin-2-ylamino)methyl)-2-methylquinolin-8-ol] | – | > 100 µM | > 25 µM | 3.8 ± 0.7 µM | Kd (GLI1-ZFD; Table 7, Ave ± SEM): 18.8 ± 5.2 µM |
| Cc1ccc2c(C)cc(C(C)Nc3ccccc3)c(O)c2n1 (stereo not shown) [Compound 33, 2,5-Dimethyl-7-(1-(phenylamino)ethyl)quinolin-8-ol] | 56.3 ± 9.4 µM | 29.5 ± 5.1 µM | 7.1 ± 2 µM | 8.8 ± 2.7 µM | – |
| Cc1ccc2ccc(C(Nc3ccccn3)c3ccc(N(C)C)cc3)c(O)c2n1 (stereo not shown) [Compound 42, 7-((4-Dimethylaminophenyl)(pyridin-2-ylamino)methyl)-2-methylquinolin-8-ol] | 45.4 ± 10.3 µM | 10.1 ± 1.8 µM | 1.5 ± 0.6 µM | 1.2 ± 0.3 µM | GI50 (DAOY (MB)): 18.3 ± 3.6 µM |
| CCN(CC)c1ccc(C(Nc2ccccn2)c2ccc3cccnc3c2O)cc1 (stereo not shown) [Compound 15, 7-((4-Diethylaminophenyl)(pyridin-2-ylamino)methyl)quinolin-8-ol] | 10 ± 1.1 µM | – | – | – | GI50 (ASZ001 cells; Table 5, 48 h): 12.2 ± 2 µM; IC50 (GLI1 mRNA expression [1]; ASZ001, Table 5, GLI1 mRNA): 1.4 ± 0.4 µM; IC50 (GLI1 mRNA expression [2]; Table 5, GLI1 mRNA): 1.1 ± 0.3 µM; GI50 (DAOY (MB)): 8.2 ± 1.6 µM |
| Cc1ccc2ccc(C(Nc3ccccn3)c3ccc(N4CCCCC4)cc3)c(O)c2n1 (stereo not shown) [Compound 44, 7-((4-(Piperidin-1-yl)phenyl)(pyridin-2-ylamino)methyl)-2-methylquinolin-8-ol] | 52.7 ± 5.3 µM | 27.7 ± 5.3 µM | 4 ± 0.8 µM | 4.5 ± 1 µM | GI50 (DAOY (MB)): 22.6 ± 4 µM |
| CCN(CC)c1ccccc1C(Nc1ccccn1)c1ccc2ccc(C)nc2c1O (stereo not shown) [Compound 35, 7-((2-Diethylaminophenyl)(pyridin-2-ylamino)methyl)-2-methylquinolin-8-ol] | – | 29.3 ± 4.9 µM | 15.8 ± 6.3 µM | 9 ± 2.2 µM | binding to GLI1 (in words) (GLI1-ZFD): do not bind GLI1; Kd (GLI1-ZFD; Table 7, Ave ± SEM): > 125 µM |
| Cc1ccc2ccc(C(Nc3ccccn3)c3ccc(-n4cccn4)cc3)c(O)c2n1 (stereo not shown) [Compound 52, 7-((4-(1H-Pyrazol-1-yl)phenyl)(pyridin-2-ylamino)methyl)-2-methylquinolin-8-ol] | – | 37.2 ± 4.8 µM | 2.7 ± 0.9 µM | 1.5 ± 0.3 µM | Kd (GLI1-ZFD; Table 7, Ave ± SEM): 10.5 ± 4.4 µM |
| CS(=O)(=O)c1ccc(C(=O)Nc2ccc(Cl)c(-c3ccccn3)c2)c(Cl)c1 [GDC-0449, reference compound] | 80.7 ± 14.2 µM | – | – | – | GI50 (ASZ001 cells; Table 5, 48 h): 73.6 ± 13.7 µM; IC50 (GLI1 mRNA expression [1]; ASZ001, Table 5, GLI1 mRNA): 0.04 ± 0.01 µM; IC50 (GLI1 mRNA expression [2]; Table 5, GLI1 mRNA): > 25 µM |
| Cc1ccc2ccc(C(Nc3ccccn3)c3ccc(N4CCOCC4)cc3)c(O)c2n1 (stereo not shown) [Compound 45, 7-((4-Morpholinophenyl)(pyridin-2-ylamino)methyl)-2-methylquinolin-8-ol] | 61.1 ± 11.5 µM | 18.3 ± 1.5 µM | 2.2 ± 0.8 µM | 1.4 ± 0.4 µM | GI50 (DAOY (MB)): 24.2 ± 5.8 µM |
| CCN(CC)c1ccc(C(Nc2ccccn2)c2ccc3ccc(C)nc3c2OCc2ccccc2)cc1 (stereo not shown) [Compound 24, N-((4-Diethylaminophenyl)(8-benzyloxy-2-methylquinolin-7-yl)methyl)pyridin-2-amine] | – | – | – | – | GI50 (ASZ001 cells; Table 5, 48 h): > 100 µM; IC50 (GLI1 mRNA expression [1]; ASZ001, Table 5, GLI1 mRNA): 1.7 ± 0.3 µM; IC50 (GLI1 mRNA expression [2]; Table 5, GLI1 mRNA): > 25 µM |
| CCN(CC)c1ccc(C(Nc2ccccn2)c2ccccc2O)cc1 (stereo not shown) [Compound 18, 2-((4-Diethylaminophenyl)(pyridin-2-ylamino)methyl)phenol] | > 100 µM | – | – | – | Kd (GLI1-ZFD; Table 5, Ave ± SEM): > 125 µM; GI50 (ASZ001 cells; Table 5, 48 h): > 100 µM; IC50 (GLI1 mRNA expression [1]; ASZ001, Table 5, GLI1 mRNA): 15.2 ± 5 µM; IC50 (GLI1 mRNA expression [2]; Table 5, GLI1 mRNA): > 25 µM |
| Cc1ccc2ccc(C(Nc3ccccn3)c3ccc(N4CCc5ccccc54)cc3)c(O)c2n1 (stereo not shown) [Compound 46, 7-((4-(Indolin-1-yl)phenyl)(pyridin-2-ylamino)methyl)-2-methylquinolin-8-ol] | – | 67.9 ± 12.8 µM | 15.4 ± 4.7 µM | 4.3 ± 0.8 µM | – |
| CCN(CC)c1ccc(C(Nc2ccncc2)c2ccc3ccc(C)nc3c2O)cc1 (stereo not shown) [Compound 31, 7-((4-(diethylamino)phenyl)(pyridin-4-ylamino)methyl)-2-methylquinolin-8-ol] | – | – | – | – | GI50 (ASZ001 cells; Table 6, 48 h): > 100 µM; IC50 (GLI1 mRNA expression [1]; ASZ001, Table 6, GLI1 mRNA): 21.4 ± 6.7 µM; IC50 (GLI1 mRNA expression [2]; Table 6, GLI1 mRNA): > 25 µM |
| COc1c(C(Nc2ccccn2)c2ccc(N3CCCC3=O)cc2)ccc2ccc(C)nc12 (stereo not shown) [Compound 53, 1-(4-((8-Methoxy-2-methylquinolin-7-yl)(pyridin-2-ylamino)methyl)phenyl)pyrrolidin-2-one] | – | 42.9 ± 12.2 µM | 0.77 ± 0.03 µM | > 25 µM | – |
